This note sets out measurements from patent publication US9663496B2, “AMPK-activating heterocyclic compounds and methods for using the same” (Rigel Pharmaceuticals, Inc., priority 2010, dated 2017).

pEC50: −log10 of the molar value.

The target of this test is AMPK. The test can be described thus: AMPK activation, enzyme-linked immunosorbent assay. It is filed as biochemical. Conditions: EC50 for AMPK activation, ELISA. The method in brief:
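Activation by each compound is measured using a conventional commercial immunoassay kit.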
In general terms: In an ELISA, binding on a coated surface is turned into a signal by an enzyme label.
`COc1ccc(OC2CCN(C(=O)c3ccc(C(=O)N[C@H]4CC[C@@H](Oc5ccc(OC)cc5)CC4)nc3)CC2)cc1` [Compound 186, N-((cis)-4-(4-methoxyphenoxy)cyclohexyl)-5-(4-(4-methoxyphenoxy)piperidine-1-carbonyl)picolinamide] had a pEC50 of more than 6.30.
With `O=C(c1ccc(N2CCC(Oc3ccc(C(F)(F)F)cc3)CC2)nc1)N1CCN(Cc2ccc(F)cc2)CC1` [Compound 187, (4-(4-fluorobenzyl)piperazin-1-yl)(6-(4-(4-(trifluoromethyl)phenoxy)piperidin-1-yl)pyridin-3-yl)methanone] the figure was 5.30 to 6.00; with `N#Cc1ccc(OC2CCN(c3ccc(C(=O)N4CCN(Cc5ccc(F)cc5)CC4)cn3)CC2)cc1` [Compound 188, 4-(1-(5-(4-(4-fluorobenzyl)piperazine-1-carbonyl)pyridin-2-yl)piperidin-4-yloxy)benzonitrile], 6.00 to 6.30.
With `COc1ccc(C(=O)C2CCN(c3ccc(C(=O)N4CCN(Cc5ccc(F)cc5)CC4)cn3)CC2)cc1` [Compound 189, (4-(4-fluorobenzyl)piperazin-1-yl)(6-(4-(4-methoxybenzoyl)piperidin-1-yl)pyridin-3-yl)methanone] the figure was 5.30 to 6.00; with `N#Cc1ccc(O[C@H]2CC[C@@H](NC(=O)c3ccc(C(=O)N4CCC(Oc5ccc(C(F)(F)F)cc5)CC4)cn3)CC2)cc1` [Compound 190, N-((cis)-4-(4-cyanophenoxy)cyclohexyl)-5-(4-(4-(trifluoromethyl)phenoxy)piperidine-1-carbonyl)picolinamide], more than 6.30; with `COc1ccc(OC2CCN(C(=O)c3ccc(C(=O)N[C@H]4CC[C@@H](Oc5ccc(C(F)(F)F)cc5)CC4)nc3)CC2)cc1` [Compound 191, 5-(4-(4-methoxyphenoxy)piperidine-1-carbonyl)-N-((cis)-4-(4-(trifluoromethyl)phenoxy)cyclohexyl) picolinamide], more than 6.30.
With `COc1ccc(C(=O)C2CCN(C(=O)c3ccc(C(=O)N[C@H]4CC[C@@H](Oc5ccc(C(F)(F)F)cc5)CC4)nc3)CC2)cc1` [Compound 192, 5-(4-(4-methoxybenzoyl)piperidine-1-carbonyl)-N-((cis)-4-(4-(trifluoromethyl)phenoxy)cyclohexyl) picolinamide] the figure was more than 6.30; with `N#Cc1ccc(OC2CCN(C(=O)c3ccc(C(=O)N[C@H]4CC[C@@H](Oc5ccc(C(F)(F)F)cc5)CC4)nc3)CC2)cc1` [Compound 193, 5-(4-(4-cyanophenoxy)piperidine-1-carbonyl)-N-((cis)-4-(4-(trifluoromethyl)phenoxy)cyclohexyl) picolinamide], more than 6.30; with `COc1ccc(C(=O)C2CCN(C(=O)c3ccc(C(=O)NC4CCN(Cc5ccc(N6CCCC6)cc5)CC4)nc3)CC2)cc1` [Compound 194, 5-(4-(4-methoxybenzoyl)piperidine-1-carbonyl)-N-(1-(4-(pyrrolidin-1-yl)benzyl)piperidin-4-yl)picolinamide], more than 6.30.
Compound `COc1ccc(OC2CCN(C(=O)c3ccc(C(=O)NC4CCN(Cc5ccc(N6CCCC6)cc5)CC4)nc3)CC2)cc1` [Compound 195, 5-(4-(4-methoxyphenoxy)piperidine-1-carbonyl)-N-(1-(4-(pyrrolidin-1-yl)benzyl)piperidin-4-yl)picolinamide] gave a pEC50 of more than 6.30.
`O=C(NC1CCN(Cc2ccc(N3CCCC3)cc2)CC1)c1ccc(C(=O)N2CCC(Oc3ccc(F)cc3)CC2)cn1` [Compound 196, 5-(4-(4-fluorophenoxy)piperidine-1-carbonyl)-N-(1-(4-(pyrrolidin-1-yl)benzyl)piperidin-4-yl)picolinamide] showed a pEC50 of more than 6.30.
Consider `N#Cc1ccc(OC2CCN(C(=O)c3ccc(C(=O)NC4CCN(Cc5ccc(N6CCCC6)cc5)CC4)nc3)CC2)cc1` [Compound 197, 5-(4-(4-cyanophenoxy)piperidine-1-carbonyl)-N-(1-(4-(pyrrolidin-1-yl)benzyl)piperidin-4-yl)picolinamide], for which the pEC50 was more than 6.30.
The figure for `COc1ccc(C(=O)C2CCN(C(=O)c3ccc(C(=O)N[C@H]4CC[C@@H](Oc5ccc(C#N)c(F)c5)CC4)nc3)CC2)cc1` [Compound 198, N-((cis)-4-(4-cyano-3-fluorophenoxy)cyclohexyl)-5-(4-(4-methoxybenzoyl)piperidine-1-carbonyl)picolinamide] is more than 6.30; for `N#Cc1ccc(OC2CCN(C(=O)c3ccc(C(=O)NC4CCN(Cc5ccc(F)cc5)CC4)nc3)CC2)cc1` [Compound 200, 5-(4-(4-cyanophenoxy)piperidine-1-carbonyl)-N-(1-(4-fluorobenzyl)piperidin-4-yl)picolinamide] it is more than 6.30.
With `NC(=O)c1ccc(CN2CCC(NC(=O)c3ccc(C(=O)N4CCN(Cc5ccc(F)cc5)CC4)cn3)CC2)cc1` [Compound 201, N-(1-(4-carbamoylbenzyl)piperidin-4-yl)-5-(4-(4-fluorobenzyl)piperazine-1-carbonyl)picolinamide] the figure was 6.00 to 6.30; with `COc1ccc(CN2CCC(NC(=O)c3ccc(C(=O)N4CCC(Oc5ccc(S(C)(=O)=O)cc5)CC4)cn3)CC2)cc1` [Compound 202, N-(1-(4-methoxybenzyl)piperidin-4-yl)-5-(4-(4-(methylsulfonyl)phenoxy)piperidine-1-carbonyl)picolinamide], more than 6.30; with `CS(=O)(=O)c1ccc(OC2CCN(C(=O)c3ccc(C(=O)NC4CCN(Cc5cc(F)cc(F)c5)CC4)nc3)CC2)cc1` [Compound 203, N-(1-(3,5-difluorobenzyl)piperidin-4-yl)-5-(4-(4-(methylsulfonyl)phenoxy)piperidine-1-carbonyl)picolinamide], more than 6.30.
The figure for `COc1ccc(C(=O)C2CCN(C(=O)c3cnc(C(=O)Nc4ccc(Oc5ccc(F)cc5)nc4)cn3)CC2)cc1` [Compound 204, N-(6-(4-fluorophenoxy)pyridin-3-yl)-5-(4-(4-methoxybenzoyl)piperidine-1-carbonyl)pyrazine-2-carboxamide] is more than 6.30; for `O=C(Nc1ccc(Oc2ccc(F)cc2)nc1)c1cnc(C(=O)N2CCC(Oc3ccc(C(F)(F)F)cc3)CC2)cn1` [Compound 205, N-(6-(4-fluorophenoxy)pyridin-3-yl)-5-(4-(4-(trifluoromethyl)phenoxy)piperidine-1-carbonyl)pyrazine-2-carboxamide] it is more than 6.30; for `O=C(Nc1ccc(Oc2ccc(F)cc2)nc1)c1cnc(C(=O)N2CCC(C(=O)c3ccc(F)cc3F)CC2)cn1` [Compound 206, 5-(4-(2,4-difluorobenzoyl)piperidine-1-carbonyl)-N-(6-(4-fluorophenoxy)pyridin-3-yl)pyrazine-2-carboxamide] it is more than 6.30.
As for `CS(=O)(=O)c1ccc(OC2CCN(C(=O)c3cnc(C(=O)Nc4ccc(Oc5ccc(F)cc5)nc4)cn3)CC2)cc1` [Compound 207, N-(6-(4-fluorophenoxy)pyridin-3-yl)-5-(4-(4-(methylsulfonyl)phenoxy)piperidine-1-carbonyl)pyrazine-2-carboxamide], the pEC50 was more than 6.30.
In turn, `CS(=O)(=O)c1ccc(OC2CCN(C(=O)c3ccc(C(=O)NC4CCN(Cc5ccc(N6CCCC6)cc5)CC4)nc3)CC2)cc1` [Compound 208, 5-(4-(4-(methylsulfonyl)phenoxy)piperidine-1-carbonyl)-N-(1-(4-(pyrrolidin-1-yl)benzyl)piperidin-4-yl)picolinamide] had a pEC50 of more than 6.30.
The figure for `N#Cc1ccc(CN2CCC(NC(=O)c3ccc(C(=O)N4CC(Oc5ccc(C#N)cc5)C4)cn3)CC2)cc1` [Compound 209, N-(1-(4-cyanobenzyl)piperidin-4-yl)-5-(3-(4-cyanophenoxy)azetidine-1-carbonyl)picolinamide] is more than 6.30; for `N#Cc1ccc(OC2CN(C(=O)c3ccc(C(=O)Nc4ccc(Oc5ccc(F)cc5)nc4)nc3)C2)cc1` [Compound 210, 5-(3-(4-cyanophenoxy)azetidine-1-carbonyl)-N-(6-(4-fluorophenoxy)pyridin-3-yl)picolinamide] it is less than 5.00; for `COc1ccc(C(=O)C2CCN(C(=O)c3cnc(C(=O)NC4CCN(Cc5ccc(C#N)cc5)CC4)cn3)CC2)cc1` [Compound 211, N-(1-(4-cyanobenzyl)piperidin-4-yl)-5-(4-(4-methoxybenzoyl)piperidine-1-carbonyl)pyrazine-2-carboxamide] it is more than 6.30.
The figure for `N#Cc1ccc(CN2CCC(NC(=O)c3cnc(C(=O)N4CCC(Oc5ccc(C(F)(F)F)cc5)CC4)cn3)CC2)cc1` [Compound 212, N-(1-(4-cyanobenzyl)piperidin-4-yl)-5-(4-(4-(trifluoromethyl)phenoxy)piperidine-1-carbonyl)pyrazine-2-carboxamide] is more than 6.30; for `CS(=O)(=O)c1ccc(CN2CCC(NC(=O)c3ccc(C(=O)N4CCC(C(=O)c5ccc(F)cc5F)CC4)nc3)CC2)cc1` [Compound 213, 6-(4-(2,4-difluorobenzoyl)piperidine-1-carbonyl)-N-(1-(4-(methylsulfonyl)benzyl)piperidin-4-yl)nicotinamide] it is more than 6.30; for `CS(=O)(=O)c1ccc(CN2CCC(NC(=O)c3ccc(C(=O)N4CCC(Oc5ccc(C#N)cc5)CC4)nc3)CC2)cc1` [Compound 214, 6-(4-(4-cyanophenoxy)piperidine-1-carbonyl)-N-(1-(4-(methylsulfonyl)benzyl)piperidin-4-yl)nicotinamide] it is less than 5.00.
Compound `COc1ccc(C(=O)C2CCN(C(=O)c3ccc(C(=O)NC4CCN(Cc5ccc(S(C)(=O)=O)cc5)CC4)cn3)CC2)cc1` [Compound 215, 6-(4-(4-methoxybenzoyl)piperidine-1-carbonyl)-N-(1-(4-(methylsulfonyl)benzyl)piperidin-4-yl)nicotinamide] had a pEC50 of less than 5.00.
The compound `CS(=O)(=O)Nc1ccc(CN2CCC(NC(=O)c3ccc(C(=O)N4CCC(C(=O)c5ccc(F)cc5F)CC4)nc3)CC2)cc1` [Compound 216, 6-(4-(2,4-difluorobenzoyl)piperidine-1-carbonyl)-N-(1-(4-(methylsulfonamido)benzyl)piperidin-4-yl)nicotinamide] had a pEC50 of less than 5.00.
The figure for `CS(=O)(=O)Nc1ccc(CN2CCC(NC(=O)c3ccc(C(=O)N4CCC(Oc5ccc(C#N)cc5)CC4)nc3)CC2)cc1` [Compound 217, 6-(4-(4-cyanophenoxy)piperidine-1-carbonyl)-N-(1-(4-(methylsulfonamido)benzyl)piperidin-4-yl)nicotinamide] is less than 5.00.

As usually defined, the pEC50 is the negative decadic logarithm of the EC50, by convention in mol/L.
